What all share (assay type): cell-based
For one test, the system named is incubated saliva. As to the kind of experiment: MIC of surface active agents and emulsifiers on incubated saliva. As to conditions: for germ-kill efficacy: assessment in words of Table 9; for MIC (ppm): incubated saliva, 24 hours at 37° C. As for the experimental part: To evaluate the germ-kill efficacy and synergist effect when two or more germ-kill actives are combined, testing was performed to determine the ratio of MBE to surface active agent. The germ-kill active and/or surface active agent was dissolved in ethanol or sterile water to give an initial concentration 0.1% to 1%. […] These dilutions were inoculated with representative oral microorganisms, or incubated saliva, and incubated for 24 hours at 37° C. For each surface active agent, the lowest dilution that was not turbid was registered as the MIC. The MBC was determined by transferring 10 microliter of liquid from non-turbid tubes to fresh growth media and incubated for 48 hrs.

In the next test the test system is S. mutans. The experiment in a line: MIC and fractional inhibitory index of MBE/surface active agent combinations on S. mutans. Conditions: 24 hours at 37° C. On the procedure:
To evaluate the germ-kill efficacy and synergist effect when two or more germ-kill actives are combined, testing was performed to determine the ratio of MBE to surface active agent. […] These dilutions were inoculated with representative oral microorganisms, or incubated saliva, and incubated for 24 hours at 37° C. For each surface active agent, the lowest dilution that was not turbid was registered as the MIC.

Test [1] deals with bacteria from freshly-collected stimulated whole saliva (biofilm). The experiment in a line: Mixed culture saliva biofilm on saliva-coated hydroxyapatite discs (medium pH and OD 600 nm). On the procedure: A mixed culture system that utilizes the bacteria from freshly-collected stimulated whole saliva was used. Saliva cell pellets were used to inoculate saliva-coated hydroxyapatite (S-HA) discs. The discs were placed in 24-well cell culture plates and incubated for up to 3 days. Biofilms were exposed to actives on days 2 and 3 (starting at 18 hours), and quantified on day 4. The number of bacteria was determined by spectrophotometric absorbance or optical density (OD) at 600 nm. The five phases of the experiment were: pellicle formation; bacterial attachment; biofilm growth; exposure to actives; and bacterial enumeration. To form the pellicles, HA Discs were ultrasonically washed in deionized water and air-dried, then autoclaved. The discs were placed in a 24 well plate with 1 ml 50% sterile saliva (1 part sterile whole saliva: 1 part saliva buffer, filter sterilize after preparation) for 2 hours with slow agitation at room temperature. The saliva was suctioned and then the discs were transferred to fresh wells for bacterial attachment. The discs were inoculated with salivary bacteria by one of two methods: (1) incubation with saliva bacteria suspended in 50% saliva at a standard OD for 2-h at 37° C.; after the attachment phase the discs are transferred to supplemented saliva growth medium, or (2) direct addition of bacteria with media and incubation. To form the biofilms, the bacterial suspension was removed, and the discs were transferred to fresh wells. One ml of supplemented saliva medium was added and the plate was placed in the incubator for overnight incubation and for the duration of the experiment (up to 72 hours). A stock solution of 1% Magnolia Bark Extract in 60% ethanol was prepared. […] One ml quantities of active ingredients and controls were placed into fresh wells, and the discs transferred to these wells for 5 minutes. The chlorhexidine control exposure was one minute, two times a day to mimic the standard mouth-rinse procedure. The exposure to active ingredient was carried out at 8:00 AM, 12:00 and 4:00 PM. After the timed exposure, the solution was removed and the discs washed twice with PBS and then transferred to fresh medium. For some experiments, the medium used during the day was Tryptic Soy Broth (TSB) with a 50 μl 40% sterile sucrose solution added to each well (to give a 2% sucrose solution). The medium was not replaced after the mid-day exposure. After overnight incubation (day 2), discs were exposed to controls and actives. On day 3 the biofilms were again exposed to tests and controls. On day 4 the discs were removed from the medium, the medium pH was measured to obtain an indication of metabolic activity, and the discs were placed into tubes with 2.5 ml PBS, vortexed for 20s, and then placed into the ultrasonic bath for another 20 sec. The suspension was transferred into cuvettes and the bacterial cell density determined by OD measurements at 600 nm. To evaluate the effect of Magnolia Bark Extract in combination with the surface active agent, sodium lauryl sulfate, five active ingredient solutions were prepared using the procedures described above. […] Also, the MBE solutions were prepared to have a concentration of 500 ppm. Sodium lauryl sulfate was added to two of the Magnolia Bark Extract solutions to obtain SLS concentrations of 0.05% and 0.1% in the Magnolia Bark Extract solutions. The testing with Magnolia Bark Extract described above was repeated with the five solutions.

In the case of Sodium Stearoyl Lactylate, in the test with incubated saliva, the germ-kill efficacy result is given as “weak or non germ-kill actives” and the “MIC (ppm)” value is over 3000 ppm.
Turning to Cocamidopropyl Betaine, in the test with incubated saliva, the germ-kill efficacy entry was “good germ-kill surface active agents”.
Take `N=C(NCCCCCCNC(=N)NC(=N)Nc1ccc(Cl)cc1)NC(=N)Nc1ccc(Cl)cc1.O=C(O)[C@H](O)[C@@H](O)[C@H](O)[C@H](O)CO.O=C(O)[C@H](O)[C@@H](O)[C@H](O)[C@H](O)CO` [Chlorhexidine gluconate, reference compound]: the MIC/ppm with S. mutans was 2 ppm. In addition, the “MIC (ppm)” value with incubated saliva stood at 2 ppm.
As to Sucrose Stearate, in the test with incubated saliva, the germ-kill efficacy result is recorded as “weak or non germ-kill actives” and the “MIC (ppm)” value is over 500 ppm.
The matching figures for Sucrose Distearate: “weak or non germ-kill actives” and over 500 ppm.
Turning to `[H]/N=C(\N/C(=N/[H])NCCCCCCNC(=N)NC(=N)Nc1ccc(Cl)cc1)Nc1ccc(Cl)cc1` [CHX, chlorhexidine], the “% OD reduction” value in test [1] (OD 600 nm vs PBS control, CHX 0.12%, one minute, two times a day) is 84%; in test [1] (SLS combination experiment, OD 600 nm, CHX 0.1% (1000 ppm)), 94%. In addition, the pH in test [1] (SLS combination experiment, CHX 0.1% (1000 ppm)) amounted to 8.8; in test [1] (medium pH day 4, CHX 0.12%, exposure one minute, two times a day) it was 8.8.
On to `CCCCCCCCCCCC(=O)OCCOCCOCCOCCOCCOCCOCCOCCOCCOCCOCCOCCOCCOCCOCCOCCOCCOCCOCCOCCOCC(OCCOCCOCCOCCOCCOCCOCCOCCOCCOCCOCCOCCOCCOCCOCCOCCOCCOCCOCCOCCO)C1OCC(OCCOCCOCCOCCOCCOCCOCCOCCOCCOCCOCCOCCOCCOCCOCCOCCOCCOCCOCCOCCO)C1OCCOCCOCCOCCOCCOCCOCCOCCOCCOCCOCCOCCOCCOCCOCCOCCOCCOCCOCCOCCO` (stereo not shown) [Tween 20, Polysorbate 20], for which the germ-kill efficacy result in the test with incubated saliva is recorded as “weak or non germ-kill actives”.
As for Sodium Brasslate, in the test with incubated saliva, the germ-kill efficacy result is “moderate germ-kill efficacy” and the “MIC (ppm)” value is given as 500 ppm.
For `CCCCCCCCCCCCOS(=O)(=O)[O-].[Na+]` [SLS, sodium lauryl sulfate], the germ-kill efficacy result with incubated saliva was “good germ-kill surface active agents”. In addition, the “% OD reduction” value in test [1] (SLS combination experiment, OD 600 nm, 1000 ppm) stood at 61%. Also, in test [1] (SLS combination experiment, 1000 ppm), the pH was 5.7.

The values are drawn from patent publication US7632525B2, “Breath freshening and oral cleansing product with magnolia bark extract in combination with surface active agents” (Wm. Wrigley Jr. Company, priority 2002, dated 2009).
